Measured values taken from patent US20170231890A1, “Methods And Compositions For Stimulating Collagen Synthesis In Skin Cells” (ELC Management LLC, priority 2016, published 2017).

Tested on: normal human dermal fibroblasts (NHDF) from a donor
Test: collagen induction assay (Pro-collagen Type I EIA) in aged fibroblasts
Type: cell-based
Conditions: for % Increase in Collagen Induction: 5 days, vs DMEM control
Method: Tripeptide-32 was tested at various concentrations for its ability to stimulate collagen production in normal human dermal fibroblasts (“NHDF”) from a donor in a collagen induction assay. Tripeptide-32 was tested at 1× (0.2%) 0.5× (0.1%) and 0.2× (0.04%) concentration diluted in DMEM (“Dulbecco's Modified Eagle Medium”) supplemented with 10% Hyclone® bovine calf serum and 1% Cellgro® penicillin-streptomycin solution (“DMEM”). All percentages are by weight of the total composition.
Cell Growth and Maintenance. Aged NHDF were obtained from ZenBio. Fibroblasts were cultured in DMEM 1× (Life Tech) supplemented with 10% bovine calf serum (“BCS”) (Hyclone) and 1% PenStrep (“PS”) solution (Cellgro). Cells were regularly maintained; subcultured as needed.
Plating Cells. Normal human dermal fibroblasts (NHDF, aged) were plated on a 96-well plate in supplemented DMEM (as indicated above). All rows, except for Row A, were seeded with cells (Row A was left blank to allow for background subtraction). Plate was allowed to incubate at standard conditions (37° C., 5% CO2, 95% humidity) overnight.
Preparation & Treatment of Cells. The following treatments were created in full media (1% P/S and 10% BCS supplemented) DMEM: (1) Laminaria digitata extract (0.5%); Acetyl hexapeptide-8 solution (a mixture of 0.05% Acetyl hexapeptide-8, 99.35% water and the remainder preservatives) (10%); and whey protein (0.1%, solid) with the remainder DMEM (the “Mixture”); (2) Mixture+Tripeptide-32: Laminaria digitata extract (0.5%), Acetyl hexpeptide-8 solution (10%), whey protein (0.1%) and Tripeptide-32 (0.2%) in DMEM at 1× (0.2%), 0.5× (0.1%), and 0.2× (0.04%) concentration; (3) Tripeptide-32 alone at 1× (0.2%), 0.5× (0.1%) and 0.2× (0.04%) concentration. Each treatment (200 ul/well) was added to the corresponding well of the 96-well plate. Treated plate was allowed to incubate at standard conditions (37° C., 5% CO2, 95% humidity) for 5 days.
Assessment of Collagen Production. Collagen production was assessed using the Pro-collagen Type I collagen EIA Kit (Takara) as per manufacturer's protocol, exactly as described. Plate was read using the Gemini M2E plate reader and results were compared.
The combination of Tripeptide-32 and a mixture of Acetyl hexapeptide-8, Laminaria digitata extract and whey protein were tested for collagen stimulation in NHDF from a donor. Tripeptide-32 at a concentration of 0.2% was combined with a mixture of Acetyl hexapeptide-8 solution (0.05% Acetyl hexapeptide-8, 99.35% water, remainder preservatives) (10%); 0.5% Laminaria digitata extract solution, and 0.1% whey protein in Supplemented DMEM.
The tests were performed according to the method in Example 1.

Substance: Ser-Thr-Pro-NH2 [Tripeptide-32]
- collagen synthesis (result in words) (0.2× (0.04%)): decreased collagen synthesis
- % Increase in Collagen Induction (0.2× concentration (Tripeptide-32 0.04%)): −15.39%
- collagen synthesis (result in words) (0.5× (0.1%) and 1× (0.2%) concentrations): nearly insignificant increase in collagen synthesis
- % Increase in Collagen Induction (0.5× concentration (Tripeptide-32 0.1%)): +1.17%
- % Increase in Collagen Induction (1.0× concentration (Tripeptide-32 0.2%)): +3.27%
